Assay results from US20250188075A1, “SUBSTITUTED HETEROCYCLIC CSNK1 INHIBITORS” (The Broad Institute, Inc., priority 2022, published 2025).

Tests used:
human CSNK1D = human CSNK1D (Homo sapiens (Human), UniProt P48730); test: CSNK1D assay (ADP-Glo, 1 μM ATP); type: biochemical; conditions: median, read-out: CSNK1D IC50 [mol/l] (median)
Procedure: CSNK1D-inhibitory activity of compounds of the present invention in presence of 1 μM adenosine-tri-phosphate (ATP) was quantified employing the CSNK1D assay as described in the following paragraphs. In essence, the enzyme activity is measured by quantification of the adenosine-di-phosphate (ADP), which is generated as a co-product of the enzyme reaction, via the “ADP-Glo™ Kinase Assay” kit from the company Promega. This detection system works as follows: In a first step the ATP not consumed in the kinase reaction is quantitatively converted to CAMP employing an adenylate cyclase (“ADP-Glo-reagent”), then the adenylate cyclase is stopped and the ADP generated in the kinase reaction converted to ATP which generates in a luciferase-based reaction a glow-luminescence signal (“Kinase Detection Reagent”).
Recombinant fusion protein of N-terminal Glutathion-S-Transferase (GST) and full-length human CSNK1D, expressed by baculovirus infected insect cells and purified via Glutathion affinity chromatography, was purchased from Life Technologies (product no. PV3665) and used as enzyme. As substrate for the kinase reaction the biotinylated peptide Btn-Ahx-SGSEGDSESGEEEG (C-terminus in amide form) was used which can be purchased e.g. from the company Biosyntan (Berlin-Buch, Germany).
For the assay 50 nl of a 100-fold concentrated solution of the test compound in DMSO was pipetted into a white 1536-well microtiter plate (Greiner Bio-One, Frickenhausen, Germany), 2 μL of a solution of CSNK1D in aqueous assay buffer [50 mM HEPES pH 7.5, 10% (v/v) glycerol, 10 mM MgCl2, 50 mM NaCl, 1 mM dithiothreitol, 0.01% (w/v) bovine serum albumin, 0.01% (v/v) Triton X-100] were added and the mixture was incubated for 15 min at 22° C. to allow pre-binding of the test compounds to the enzyme before the start of the kinase reaction. Then the kinase reaction was started by the addition of 3 μL of a solution of ATP (1.67 μM=>final conc. in the 5 μL assay volume is 1 μM) and peptide substrate (50 μM=>final conc. in the 5 μL assay volume is 30 μM) in assay buffer and the resulting mixture was incubated for a reaction time of 30 min at 22° C. The concentration of CSNK1D was adjusted depending of the activity of the enzyme lot and was chosen appropriate to have the assay in the linear range, a typical concentration is about 0.5 ng/μL. The reaction was stopped by the addition of 2.5 μL of “ADP-Glo-reagent” (1:1.5 fold diluted with water) and the resulting mixture was incubated at 22° C. for 1 h to convert the ATP not consumed in the kinase reaction completely to CAMP. Subsequently 2.5 μL of the “kinase detection reagent” (1.2 fold more concentrated than recommended by the producer) were added, the resulting mixture was incubated at 22° C. for 1 h and then the luminescence measured with a suitable measurement instrument (e.g. Viewlux™ from Perkin-Elmer). The amount of emitted light was taken as a measure for the amount of ADP generated and thereby for the activity of the CSNK1D.
The data were normalised (enzyme reaction without inhibitor=0% inhibition, all other assay components but no enzyme=100% inhibition).

HT-29 cells = test: HT29 cell proliferation assay, CTG method; type: cell-based; conditions: Homo sapiens; HT-29, CTG, 96 h; median; read-out: 2D-PROLI HT-29 CTG 96 h, IC50 - [mol/l] (median)
Procedure: CELL PROLIFERATION ASSAY CTG METHOD, 384-well version: Day 1: plated 400 cells/30 μL/well in growth medium (DMEM/Ham's F12; (Biochrom; #FG 4815, mit stabilem Glutamin)+FCS (final: 10%); (Biochrom; #S 0415)) in 384-well black plates (Corning #3571). Plated sister wells in a separate plate for time zero determination. Incubated all plates overnight at 37° C. Day 2: added test compounds in serial dilutions using the HP D300 Digital Dispenser and incubated at 37° C. for 96 h. Measured time zero plate: add 30 μL/well CTG solution (Promega CellTiter-Glo solution (catalog #G7573)) to wells in time zero plate; incubated for 2 minutes in a orbital shaker to induce cell lysis; allowed the plate to incubate at room temperature for additional 10 min to stabilize luminescent signal and read luminescence on PheraStar (rapid mode—0.02 sec/well; GAIN 3000). Day 6: Added 30 μL/well CTG solution to all test wells, incubated for 2 minutes in a orbital shaker to induce cell lysis; allowed the plate to incubate at room temperature for additional 10 min to stabilize luminescent signal and read luminescence on PheraStar (rapid mode—0.02 sec/well; GAIN 3000 Proliferation IC50s were calculated using the DRC application in ShiNy Analysis Platform-SNAP.”

LoVo cells = test: LoVo cell proliferation assay, CTG method; type: cell-based; conditions: Homo sapiens, 96 h, median, read-out: 2D-PROLI LoVo CTG 96 h, IC50 - [mol/l] (median)
Procedure: CELL PROLIFERATION ASSAY CTG METHOD, 384-well version: Day 1: plate 400 cells/30 μL/well in growth medium (RPMI 1640 (Gibco #61870-10; with Glutamax)+10% FBS) in 384-well black plates (Corning #3571). Plated sister wells in a separate plate for time zero determination. Incubated all plates overnight at 37° C. Day 2: added test compounds in serial dilutions using the HP D300 Digital Dispenser and incubate at 37° C. for 96 h. Measured time zero plate: add 30 μL/well CTG solution (Promega CellTiter-Glo solution (catalog #G7573)) to wells in time zero plate; incubated for 2 minutes in a orbital shaker to induce cell lysis; allowed the plate to incubate at room temperature for additional 10 min to stabilize luminescent signal and read luminescence on PheraStar (rapid mode-0.02 sec/well; GAIN 3000). Day 6: Added 30 μL/well CTG solution to all test wells, incubated for 2 minutes in a orbital shaker to induce cell lysis; allowed the plate to incubate at room temperature for additional 10 min to stabilize luminescent signal and read luminescence on PheraStar (rapid mode-0.02 sec/well; GAIN 3000). Proliferation IC50s were calculated using the DRC application in ShiNy Analysis Platform-SNAP.”

human CSNK1D, sequence (P48730 whole entry): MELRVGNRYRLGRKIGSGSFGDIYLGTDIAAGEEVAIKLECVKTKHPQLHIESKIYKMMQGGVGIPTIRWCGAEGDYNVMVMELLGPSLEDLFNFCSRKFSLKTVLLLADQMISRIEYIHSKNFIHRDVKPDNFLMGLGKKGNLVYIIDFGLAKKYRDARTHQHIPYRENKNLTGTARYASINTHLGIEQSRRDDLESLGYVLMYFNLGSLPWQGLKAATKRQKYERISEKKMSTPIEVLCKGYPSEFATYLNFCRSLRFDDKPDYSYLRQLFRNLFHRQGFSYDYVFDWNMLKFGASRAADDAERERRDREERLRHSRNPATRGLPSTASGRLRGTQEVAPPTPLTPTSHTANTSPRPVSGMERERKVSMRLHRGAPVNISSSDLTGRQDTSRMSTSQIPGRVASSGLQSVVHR

SMILES: O=C(Cc1cnc2ccccn12)Nc1cc(-c2[nH]c3cccnc3c2-c2ccccn2)ccn1 [Example 1, 2-imidazo[1,2-a]pyridin-3-yl-N-[4-[3-(2-pyridyl)-^1H-pyrrolo[3,2-b]pyridin-2-yl]-2-pyridyl]acetamide]
- IC50 (human CSNK1D): 11.4 nM
- IC50 (HT-29 cells): 2670 nM
- IC50 (LoVo cells): 12400 nM

SMILES: Cn1cc(CC(=O)Nc2cc(-c3[nH]c4cccnc4c3-c3ccccn3)ccn2)cn1 [Example 2, 2-(1-methylpyrazol-4-yl)-N-[4-[3-(2-pyridyl)-^1H-pyrrolo[3,2-b]pyridin-2-yl]-2-pyridyl]acetamide]
- IC50 (human CSNK1D): 11.1 nM
- IC50 (HT-29 cells): 2670 nM
- IC50 (LoVo cells): 8410 nM

SMILES: Cc1nc(CC(=O)Nc2cc(-c3[nH]c4cccnc4c3-c3ccccn3)ccn2)cs1 [Example 3, 2-(2-methylthiazol-4-yl)-N-[4-[3-(2-pyridyl)-^1H-pyrrolo[3,2-b]pyridin-2-yl]-2-pyridyl]acetamide]
- IC50 (human CSNK1D): 5.01 nM
- IC50 (HT-29 cells): 445 nM
- IC50 (LoVo cells): 363 nM

SMILES: O=C(Cc1cnco1)Nc1cc(-c2[nH]c3cccnc3c2-c2ccccn2)ccn1 [Example 4]
- IC50 (HT-29 cells): 588 nM
- IC50 (LoVo cells): 3130 nM

SMILES: Cn1cnc(CC(=O)Nc2cc(-c3[nH]c4cccnc4c3-c3ccccn3)ccn2)c1 [Example 5, 2-(1-methylimidazol-4-yl)-N-[4-[3-(2-pyridyl)-^1H-pyrrolo[3,2-b]pyridin-2-yl]-2-pyridyl]acetamide]
- IC50 (human CSNK1D): 13.1 nM
- IC50 (HT-29 cells): 3420 nM
- IC50 (LoVo cells): 7430 nM

SMILES: O=C(Cc1cnc2ccccc2n1)Nc1cc(-c2[nH]c3cccnc3c2-c2ccccn2)ccn1 [Example 6, N-[4-[3-(2-pyridyl)-^1H-pyrrolo[3,2-b]pyridin-2-yl]-2-pyridyl]-2-quinoxalin-2-yl-acetamide]
- IC50 (human CSNK1D): 3.44 nM
- IC50 (HT-29 cells): 125 nM
- IC50 (LoVo cells): 177 nM

SMILES: Cc1nn(C)cc1CC(=O)Nc1cc(-c2[nH]c3cccnc3c2-c2ccccn2)ccn1 [Example 9, 2-(1,3-dimethylpyrazol-4-yl)-N-[4-[3-(2-pyridyl)-^1H-pyrrolo[3,2-b]pyridin-2-yl]-2-pyridyl]acetamide]
- IC50 (human CSNK1D): 5.66 nM
- IC50 (HT-29 cells): 860 nM
- IC50 (LoVo cells): 4070 nM

SMILES: O=C(Cc1ccon1)Nc1cc(-c2[nH]c3cccnc3c2-c2ccccn2)ccn1 [Example 10, 2-isoxazol-3-yl-N-[4-[3-(2-pyridyl)-^1H-pyrrolo[3,2-b]pyridin-2-yl]-2-pyridyl]acetamide]
- IC50 (human CSNK1D): 5.6 nM
- IC50 (HT-29 cells): 797 nM
- IC50 (LoVo cells): 3240 nM

SMILES: Cc1ocnc1CC(=O)Nc1cc(-c2[nH]c3cccnc3c2-c2ccccn2)ccn1 [Example 11, 2-(5-methyloxazol-4-yl)-N-[4-[3-(2-pyridyl)-^1H-pyrrolo[3,2-b]pyridin-2-yl]-2-pyridyl]acetamide]
- IC50 (human CSNK1D): 8.09 nM
- IC50 (HT-29 cells): 1410 nM
- IC50 (LoVo cells): 3320 nM

SMILES: Cc1noc(C)c1CC(=O)Nc1cc(-c2[nH]c3cccnc3c2-c2ccccn2)ccn1 [Example 12, 2-(3,5-dimethylisoxazol-4-yl)-N-[4-[3-(2-pyridyl)-^1H-pyrrolo[3,2-b]pyridin-2-yl]-2-pyridyl]acetamide]
- IC50 (human CSNK1D): 5.02 nM
- IC50 (HT-29 cells): 1190 nM
- IC50 (LoVo cells): 6810 nM

SMILES: Cc1cc(CC(=O)Nc2cc(-c3[nH]c4cccnc4c3-c3ccccn3)ccn2)on1 [Example 13, 2-(3-methylisoxazol-5-yl)-N-[4-[3-(2-pyridyl)-^1H-pyrrolo[3,2-b]pyridin-2-yl]-2-pyridyl]acetamide]
- IC50 (human CSNK1D): 5.68 nM
- IC50 (HT-29 cells): 442 nM
- IC50 (LoVo cells): 3140 nM

SMILES: Cc1cc(CC(=O)Nc2cc(-c3[nH]c4cccnc4c3-c3ccccn3)ccn2)n(C)n1 [Example 14]
- IC50 (human CSNK1D): 4.88 nM
- IC50 (HT-29 cells): 508 nM
- IC50 (LoVo cells): 3750 nM

SMILES: O=C(Cc1cc2ccccn2n1)Nc1cc(-c2[nH]c3cccnc3c2-c2ccccn2)ccn1 [Example 15, 2-pyrazolo[1,5-a]pyridin-2-yl-N-[4-[3-(2-pyridyl)-^1H-pyrrolo[3,2-b]pyridin-2-yl]-2-pyridyl]acetamide]
- IC50 (human CSNK1D): 3.75 nM
- IC50 (HT-29 cells): 149 nM
- IC50 (LoVo cells): 192 nM

SMILES: Cc1cc(CC(=O)Nc2cc(-c3[nH]c4cccnc4c3-c3ccccn3)ccn2)nn1C [Example 16, 2-(1,5-dimethylpyrazol-3-yl)-N-[4-[3-(2-pyridyl)-^1H-pyrrolo[3,2-b]pyridin-2-yl]-2-pyridyl]acetamide]
- IC50 (human CSNK1D): 6.57 nM
- IC50 (HT-29 cells): 627 nM
- IC50 (LoVo cells): 1500 nM

SMILES: Cc1nn(C)c(C)c1CC(=O)Nc1cc(-c2[nH]c3cccnc3c2-c2ccccn2)ccn1 [Example 17, N-[4-[3-(2-pyridyl)-^1H-pyrrolo[3,2-b]pyridin-2-yl]-2-pyridyl]-2-(1,3,5-trimethylpyrazol-4-yl)acetamide]
- IC50 (human CSNK1D): 6.87 nM
- IC50 (HT-29 cells): 1180 nM
- IC50 (LoVo cells): 5660 nM

SMILES: Cc1nc(C)c(CC(=O)Nc2cc(-c3[nH]c4cccnc4c3-c3ccccn3)ccn2)s1 [Example 18, 2-(2,4-dimethylthiazol-5-yl)-N-[4-[3-(2-pyridyl)-^1H-pyrrolo[3,2-b]pyridin-2-yl]-2-pyridyl]acetamide]
- IC50 (human CSNK1D): 3.8 nM
- IC50 (HT-29 cells): 220 nM
- IC50 (LoVo cells): 1130 nM

SMILES: Cn1cc(C(CC(F)F)C(=O)Nc2cc(-c3[nH]c4cccnc4c3-c3ccccn3)ccn2)cn1 (centres unmarked) [Example 19, 4,4-difluoro-2-(1-methylpyrazol-4-yl)-N-[4-[3-(2-pyridyl)-^1H-pyrrolo[3,2-b]pyridin-2-yl]-2-pyridyl]butanamide]
- IC50 (human CSNK1D): 13.9 nM
- IC50 (HT-29 cells): 1240 nM
- IC50 (LoVo cells): 5500 nM

SMILES: O=C(Cc1ccn(CC(F)(F)F)n1)Nc1cc(-c2[nH]c3cccnc3c2-c2ccccn2)ccn1 [Example 20, N-[4-[3-(2-pyridyl)-^1H-pyrrolo[3,2-b]pyridin-2-yl]-2-pyridyl]-2-[1-(2,2,2-trifluoroethyl)pyrazol-3-yl]acetamide]
- IC50 (human CSNK1D): 4.93 nM
- IC50 (HT-29 cells): 341 nM
- IC50 (LoVo cells): 1370 nM

SMILES: Cn1nc(CC(=O)Nc2cc(-c3[nH]c4cccnc4c3-c3ccccn3)ccn2)cc1C(F)(F)F [Example 21, 2-[1-methyl-5-(trifluoromethyl)pyrazol-3-yl]-N-[4-[3-(2-pyridyl)-^1H-pyrrolo[3,2-b]pyridin-2-yl]-2-pyridyl]acetamide]
- IC50 (human CSNK1D): 4.88 nM
- IC50 (HT-29 cells): 222 nM
- IC50 (LoVo cells): 427 nM
